In a melting point compilation (Tetko et al.; mined from patent text by program, amines drawn as free bases though some values may be those of a salt):

**Q.** Which melting point does the source give for Cc1ccc(CSc2c(O)cc(-c3ccccc3)oc2=O)cc1 here?
**A.** 164 to 165 °C

**Q.** With COc1ccc(-c2cc(NCc3ccccc3)nnc2-c2ccc(OC)cc2)cc1 as the compound, how does the melting point read?
**A.** 125 to 126 °C

**Q.** With CNc1ccc(Cl)c(-c2cc(=O)c3c(O)cc(O)c(C4CCN(C)C4CO)c3o2)c1 (stereo not given) as the compound, how does the melting point read?
**A.** 208 to 210 °C

**Q.** With CCCC(=O)OCC(=O)C1(OC(=O)CCC)CCC2C3CC(C)C4=CC(=O)CCC4(C)C3C(O)CC21C (stereo not given) as the compound, how does the melting point read?
**A.** 103 °C

**Q.** With CCCCc1nc2c(N)nc3ccc(OCC(=O)N(C)Cc4ccccc4)cc3c2n1C as the compound, how does the melting point read?
**A.** 167 to 169 °C

**Q.** Which melting point does the source give for Nc1cc(-n2cc(C(=O)O)c(=O)c3cc(F)c(NC4CC4)c(Cl)c32)c(F)cc1F here?
**A.** 141 to 143 °C

**Q.** For O=C(O)CN1C(=O)C(=Cc2ccc([N+](=O)[O-])o2)SC1=S, which melting point is on record?
**A.** 238 to 242 °C

**Q.** Which melting point does the source give for CC(C)(C)C(=O)Oc1ccc2c3c(cnc2c1)CCCC3O[Si](C)(C)C(C)(C)C (stereo not given) here?
**A.** 125 to 126 °C

**Q.** For CCOC(=O)c1ccn2c(=O)c(CC)c(C)nc2c1, which melting point is on record?
**A.** 95 to 96 °C

**Q.** For CN(C)S(=O)(=O)Oc1ccccc1S(N)(=O)=O, which melting point is on record?
**A.** 88 to 89 °C

**Q.** Which melting point does the source give for N#CC(=Cc1ccc(O)c(O)c1)C(=O)Nc1ccc(Br)cc1 here?
**A.** 277 to 278 °C

**Q.** For O=C(O)[C@H](Cc1c[nH]c2ccccc12)NC(=O)[C@@H]1C[C@H](S)CN1S(=O)(=O)c1ccc2ccccc2c1, which melting point is on record?
**A.** 130 °C

**Q.** With O=C(Cn1cccc(O)c1=O)NCCN(CCNC(=O)Cn1cccc(O)c1=O)CCNC(=O)Cn1cccc(O)c1=O as the compound, how does the melting point read?
**A.** 112 to 114 °C

**Q.** For Cn1c(Cl)c(C#N)c2ccccc21, which melting point is on record?
**A.** 112 to 114 °C

**Q.** With CC1(C)NC(=O)c2cc(OCCBr)ccc2O1 as the compound, how does the melting point read?
**A.** 190 to 195 °C

**Q.** For O=[N+]([O-])c1cc(OCc2ccccc2)ccc1CCCl, which melting point is on record?
**A.** 38 to 40 °C

**Q.** For COC1(c2ccc(C(F)(F)F)cc2CN(Cc2cc(C(F)(F)F)cc(C(F)(F)F)c2)c2nnn(C)n2)CCCCCC1, which melting point is on record?
**A.** 103 to 104 °C

**Q.** With Nc1c(Br)cc(Br)cc1S(=O)(=O)C(F)F as the compound, how does the melting point read?
**A.** 84 to 88 °C

**Q.** For CC(C)(C)C(NC(=O)c1ccc(Cl)cc1)NC(=NC#N)Nc1cc(F)cc(F)c1 (stereo not given), which melting point is on record?
**A.** 196 to 198 °C

**Q.** For CC(C)NC(=O)N1c2ccc(S(=O)(=O)n3cc(-c4ccccc4)[nH]c3=O)cc2CC1C (stereo not given), which melting point is on record?
**A.** 154 to 156 °C

**Q.** For CC(C)(C)NCCCOc1ccccc1Cc1cccc2[nH]ccc12, which melting point is on record?
**A.** 96 °C

**Q.** Which melting point does the source give for COc1ccc(S(=O)(=O)n2c(CCC(=O)O)cc3cc(Cl)ccc32)cc1 here?
**A.** 95 to 98 °C

**Q.** Which melting point does the source give for CCCc1nn(-c2ccc(C(F)(F)F)cn2)cc1CCCOc1c(Br)cccc1CC(=O)O here?
**A.** 145 to 146 °C

**Q.** With CN(CCNC(=O)Cc1ccc(OCc2ccc(-c3ccccc3)cc2)cc1)C(=O)OC(C)(C)C as the compound, how does the melting point read?
**A.** 109 to 110 °C

**Q.** For Clc1cccc(CNc2ncc(Cc3ccncc3)c3ccccc23)c1, which melting point is on record?
**A.** 141 to 142 °C

**Q.** With CCOc1nc2ccccc2n2cc(C(=O)O)nc12 as the compound, how does the melting point read?
**A.** 220 to 222 °C

**Q.** With O=c1[nH]c2cc(Cl)cc(Cl)c2c(=O)n1Cc1cccc(Br)c1 as the compound, how does the melting point read?
**A.** 161 to 165 °C

**Q.** Which melting point does the source give for COc1ccc(C)cc1NC(=O)Nc1ccc(N2CCN(C(=O)Nc3ccc(OCCO)cc3Cl)CC2)c(F)c1 here?
**A.** 118 to 120 °C

**Q.** Which melting point does the source give for CC(=O)N(C(C)=O)c1ccc(C=Cc2ccc3ccccc3n2)cc1 here?
**A.** 148 to 150 °C

**Q.** With Cc1sc(Cc2ccccc2)c(-c2ccc(-c3ccc(OC(Cc4ccccc4)C(=O)O)cc3)cc2)c1C (stereo not given) as the compound, how does the melting point read?
**A.** 142 to 144 °C

**Q.** Which melting point does the source give for COc1cccc(NC(=O)c2ccn3c2CSC3c2cccnc2)n1 (stereo not given) here?
**A.** 154 °C

**Q.** With O=c1c2ccccc2ncn1NC(=S)Nc1ccc(Br)cc1 as the compound, how does the melting point read?
**A.** 189 to 190 °C

**Q.** For CCOC(=O)C(c1c(F)cc(C#N)cc1F)c1cc(C)c(C(=O)c2ccc(Cl)cc2)n1C (stereo not given), which melting point is on record?
**A.** 155 to 156 °C

**Q.** With CCCOc1nc(N[C@@H](C)Cc2ccccc2)c2cnn(-c3ccccc3)c2n1 as the compound, how does the melting point read?
**A.** 134 to 136 °C

**Q.** With N#Cc1ccc(-c2nc3c(C(N)=O)cccc3[nH]2)cc1 as the compound, how does the melting point read?
**A.** > 310 °C

**Q.** For Cc1nc(Cl)c2c(n1)N(C)C(=O)CO2, which melting point is on record?
**A.** 142 to 143 °C

**Q.** With NC(=O)C1CCc2c(C(=O)c3ccccc3)cccc21 (stereo not given) as the compound, how does the melting point read?
**A.** 164 to 166 °C

**Q.** Which melting point does the source give for COc1cc(OC)nc(-n2cnc(N)n2)n1 here?
**A.** 219 °C

**Q.** Which melting point does the source give for CC(C)n1c(/C=C/C=O)c(-c2ccc(F)cc2)c2ccccc2c1=O here?
**A.** 159 to 161 °C

**Q.** With COCc1cccc2oc(C(=O)Nc3ccc(-c4ccc(S(=O)(=O)N(C)C(C(=O)O)C(C)C)cc4)cc3)c(C)c12 (stereo not given) as the compound, how does the melting point read?
**A.** 144 to 146 °C

**Q.** For Cc1ccc(C(=O)NC(NC(=S)Nc2cccc(C(F)(F)F)c2F)C(F)(F)F)cc1 (stereo not given), which melting point is on record?
**A.** 179 to 181 °C

**Q.** For O=C(O)[C@H]1C=C[C@H](c2ccccc2)n2c(=O)n(CCCl)c(=O)n21 (relative stereo), which melting point is on record?
**A.** 141 to 143 °C

**Q.** With CN(CC1=C(C#N)C(c2cccc3nonc23)c2c[nH]nc2N1)C(=O)OC(C)(C)C (stereo not given) as the compound, how does the melting point read?
**A.** 207 °C

**Q.** For CCC(C)(C)NCC(O)c1ccc(N)c(C#N)c1 (stereo not given), which melting point is on record?
**A.** 143 °C

**Q.** Which melting point does the source give for CC(C)CCSC1CC(CO)OC1n1ccc(=O)[nH]c1=O (stereo not given) here?
**A.** 131 to 133 °C

**Q.** With Cc1nccn1-c1ccc(-c2cnc([C@H](Cc3ccccn3)N(C=O)c3cc4ccccc4[nH]3)n2C)cc1 as the compound, how does the melting point read?
**A.** 207 to 211 °C

**Q.** For CCCC(=O)Cc1ccc(C(=O)Nc2ccc3cc(CN4CCCCC4)cnc3c2C)cc1, which melting point is on record?
**A.** 164 to 165 °C

**Q.** Which melting point does the source give for O=C(c1ccc(O)cc1)c1sc2cc(O)ccc2c1-c1ccccc1 here?
**A.** 198 to 200 °C

**Q.** For Fc1cccc2[nH]c(-c3ccccc3)cc12, which melting point is on record?
**A.** 65 to 67 °C

**Q.** For CCCCCCCCCCCP(=O)(c1ccccc1)c1ccccc1, which melting point is on record?
**A.** 69 °C

**Q.** For CCCCC1=NC2(CCCC2)C(=O)N1Cc1ccc(-c2ccccc2S(=O)(=O)Nc2noc(C)c2C)c(COCC)c1, which melting point is on record?
**A.** 148 °C

**Q.** Which melting point does the source give for O=C1C=C(Br)C(=O)c2ccccc21 here?
**A.** 130 to 132 °C

**Q.** With O=C(O)CN1C(=O)C(=Cc2ccccc2)SC1=S as the compound, how does the melting point read?
**A.** 254 to 256 °C

**Q.** With O=C(Nc1ccccc1)c1cccc([N+](=O)[O-])c1C(=O)Nc1ccccc1 as the compound, how does the melting point read?
**A.** 139 to 141 °C

**Q.** For Fc1ccc(N2CCN(Cc3cn4cc(Cl)ccc4n3)CC2)cc1, which melting point is on record?
**A.** 130 to 131 °C

**Q.** With Cc1c(C(=O)Nc2cccc(C#N)c2N2CCC(CN3CCOCC3)CC2)cnn1-c1ccc(Cl)cc1 as the compound, how does the melting point read?
**A.** 235 °C

**Q.** With CN(C)C(=S)N1C=CC=NC1N (stereo not given) as the compound, how does the melting point read?
**A.** 134 to 136 °C

**Q.** Which melting point does the source give for CC(C)(C)C(O)C1C(C(=O)O)C1(C)C (stereo not given) here?
**A.** 129 °C

**Q.** With C=COCCn1cccc1-c1nc(-c2ccc(OC)cc2)c(-c2ccc(OC)cc2)s1 as the compound, how does the melting point read?
**A.** 81.5 to 84.5 °C

**Q.** Which melting point does the source give for C=CCC(C#N)(C#N)Cc1ccc(OCC)cc1 here?
**A.** 84.3 °C

**Q.** Which melting point does the source give for O=C(Nc1c(C(O)(C(F)(F)F)C(F)(F)F)ccc2ccccc12)c1ccccc1Cl here?
**A.** 209 to 211 °C

**Q.** Which melting point does the source give for COC(=O)CS(=O)(=O)Nc1ccc(F)c(C(F)(F)F)c1 here?
**A.** 111 to 112 °C

**Q.** Which melting point does the source give for OC(CC(Br)=CBr)(CC(Br)=CBr)Cn1cncn1 (stereo not given) here?
**A.** 100 °C

**Q.** With O=C1C=CC(O)(c2cc3ccccc3n2S(=O)(=O)c2ccccc2)C=C1 as the compound, how does the melting point read?
**A.** 170 to 172 °C

**Q.** With COC(=O)c1ccc2c(C)csc2c1 as the compound, how does the melting point read?
**A.** 46 to 47 °C

**Q.** With CN(C)c1ccccc1Sc1nc2ccccc2[nH]1 as the compound, how does the melting point read?
**A.** 148 to 149 °C

**Q.** Which melting point does the source give for CCn1ncnc1COc1nn2c(-c3ccccc3F)nncc2c1-c1ccccc1 here?
**A.** 171 to 173 °C

**Q.** Which melting point does the source give for O=C(O)c1ccccc1OCC(F)(F)F here?
**A.** 85 to 86.5 °C

**Q.** With O=c1c2cccnc2c(-c2cccc(Cl)c2)cn1CC1CCCC1 as the compound, how does the melting point read?
**A.** 122 to 124 °C

**Q.** With CN(C)C=Nc1nc(OS(=O)(=O)c2ccccc2)ncc1F as the compound, how does the melting point read?
**A.** 124 to 125 °C
